Assay results taken from US20240228486A1, “SULFONE- AND SULFOXIMINE-BASED SELECTIVE PARP1 INHIBITORS” (Enliven Inc., priority 2022, published 2024).

Assays:
[1] = molecular target: PARP1 (Homo sapiens (Human), UniProt P09874); experiment: PARP1 FP Assay; format: binding; settings: PARP1 fluorescence polarization probe assay, 4 hours at room temperature
Experimental: Compounds were dissolved and 4-fold serially diluted in DMSO. Compounds were transferred by an Echo to the assay plate to reach final concentrations ranging from 10 μM to 0.01 nM.
Assay buffer was composed of 50 mM Tris pH 8.0, 10 mM MgCl2, 150 mM NaCl and 0.001% Triton X100.

[2] = molecular target: PARP2 (Homo sapiens (Human), UniProt Q9UGN5); experiment: PARP2 FP Assay; format: binding; settings: PARP2 fluorescence polarization probe assay, 4 hours at room temperature
[3] = test system: PARylation level in MDA-MB-436; experiment: PARPylation MSD Assay on MDA-MB-436; format: cell-based; settings: Homo sapiens; MDA-MB-436 cells, 4 hours incubation with compound, electrochemiluminescent (MSD) detection of PARylation
Experimental: Compounds were dissolved and 4-fold serially diluted in DMSO.
Plates were incubated for 1 hour at room temperature, with shaking. […] Plates were incubated for 1 hour at room temperature, with shaking.

Sequence of PARP1 (P09874 whole entry): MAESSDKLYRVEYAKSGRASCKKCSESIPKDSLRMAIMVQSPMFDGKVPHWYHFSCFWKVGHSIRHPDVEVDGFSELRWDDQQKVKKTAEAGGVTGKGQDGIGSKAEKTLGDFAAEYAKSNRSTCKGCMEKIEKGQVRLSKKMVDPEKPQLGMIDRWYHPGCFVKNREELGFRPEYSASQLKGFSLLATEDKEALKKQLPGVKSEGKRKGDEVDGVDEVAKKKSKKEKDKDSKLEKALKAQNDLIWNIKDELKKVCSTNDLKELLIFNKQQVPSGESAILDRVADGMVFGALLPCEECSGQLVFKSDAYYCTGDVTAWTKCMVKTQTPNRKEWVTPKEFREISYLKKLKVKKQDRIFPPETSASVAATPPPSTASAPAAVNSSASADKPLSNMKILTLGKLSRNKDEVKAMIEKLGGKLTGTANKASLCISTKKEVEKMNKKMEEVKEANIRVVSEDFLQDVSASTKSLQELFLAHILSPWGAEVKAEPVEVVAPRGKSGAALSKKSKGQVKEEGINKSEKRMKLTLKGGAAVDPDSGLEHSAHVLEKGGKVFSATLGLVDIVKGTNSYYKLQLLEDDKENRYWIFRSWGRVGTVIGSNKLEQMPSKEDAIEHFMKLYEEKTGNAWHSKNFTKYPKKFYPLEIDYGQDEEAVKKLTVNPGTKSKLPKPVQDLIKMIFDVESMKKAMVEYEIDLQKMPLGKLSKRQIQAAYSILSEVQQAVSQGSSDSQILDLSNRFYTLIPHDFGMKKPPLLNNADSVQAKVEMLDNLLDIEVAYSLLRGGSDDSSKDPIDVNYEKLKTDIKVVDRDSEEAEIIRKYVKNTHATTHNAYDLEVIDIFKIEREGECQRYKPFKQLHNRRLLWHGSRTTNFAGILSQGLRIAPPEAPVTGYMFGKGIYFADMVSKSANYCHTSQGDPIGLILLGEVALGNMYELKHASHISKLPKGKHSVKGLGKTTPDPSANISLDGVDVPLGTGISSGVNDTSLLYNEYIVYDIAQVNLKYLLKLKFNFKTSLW
Sequence of PARP2 (Q9UGN5 whole entry): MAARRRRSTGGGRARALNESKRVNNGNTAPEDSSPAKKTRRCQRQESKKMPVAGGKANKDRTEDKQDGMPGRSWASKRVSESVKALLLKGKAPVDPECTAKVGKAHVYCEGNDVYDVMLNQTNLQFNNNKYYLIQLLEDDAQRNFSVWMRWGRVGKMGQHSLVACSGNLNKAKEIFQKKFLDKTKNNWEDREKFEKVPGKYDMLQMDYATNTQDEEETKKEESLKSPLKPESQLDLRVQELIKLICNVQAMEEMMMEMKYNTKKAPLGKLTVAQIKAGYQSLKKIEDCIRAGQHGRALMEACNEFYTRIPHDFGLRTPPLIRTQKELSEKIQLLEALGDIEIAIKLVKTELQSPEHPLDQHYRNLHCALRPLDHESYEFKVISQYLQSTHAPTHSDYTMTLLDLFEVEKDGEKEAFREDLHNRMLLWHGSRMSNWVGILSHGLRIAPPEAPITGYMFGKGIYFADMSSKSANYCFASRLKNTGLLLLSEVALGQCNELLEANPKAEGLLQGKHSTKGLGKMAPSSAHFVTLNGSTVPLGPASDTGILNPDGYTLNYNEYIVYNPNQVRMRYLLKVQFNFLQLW

Structure (SMILES) | IC50 [1] [nM] | IC50 [2] [nM] | IC50 [3] [nM]
CCc1cc2ncc([S@](=N)(=O)C3CCN(c4ccc(C(=O)NC)nc4)CC3)cc2[nH]c1=O (single isomer, unassigned) [Compound 2.7] | 6.89 | > 10000 | 10.8
CCc1cc2ncc([S@@](=N)(=O)C3CCN(c4ccc(C(=O)NC)nc4)CC3)cc2[nH]c1=O (single isomer, unassigned) [Compound 2.8] | 8.66 | > 10000 | 0.515
CCc1cc2ncc(S(=O)(=O)N3CCN(c4ccc(F)cc4F)CC3)cc2[nH]c1=O [Compound 2.6, 7-((4-(2,4-difluorophenyl)piperazin-1-yl)sulfonyl)-3-ethyl-1,5-naphthyridin-2(1H)-one] | > 10000 | > 10000 | > 1000
